Test results published in PubChem BioAssay AID1996.
In brackets after ≈: the same amount, converted by molar mass.

Conditions: buffer; pH 7.4; 200.0 µM

SMILES | solubility kinetic [µg/mL]
COc1ccccc1N1C(=O)CSC1=NC(=O)c1ccccc1 | 3 (≈ 9.19 µM)
Cc1cc(C)c(S(=O)(=O)c2cccc(Cl)c2)c(=O)[nH]1 | > 44.7
CC1C(=O)Nc2ccccc2N1C(=O)c1c(F)cccc1F (centres undefined) | > 45.3
O=C(NCCOC(=O)c1ccc(F)cc1)c1ccc(F)cc1 | 10.4 (≈ 34.1 µM)
O=S(=O)(Nc1cccc2cccnc12)c1ccccc1 | 3.9 (≈ 13.7 µM)
COC1CCCN(Cc2nc(Cc3ccccc3F)no2)C1 (centres undefined) | 37.9 (≈ 124 µM)
c1ccc(-c2ccccc2OCCN2CCCC2)cc1 | 25 (≈ 93.5 µM)
CC(=O)c1ccc(S(=O)(=O)N2CCNCC2)cc1.Cl | 45.5
CSc1ccccc1NC(=O)COc1ccc2c(c1)OCO2 | 41.4 (≈ 130 µM)
FC(F)(F)c1cnc(N2CCSCC2)c(Cl)c1 | < 0.3
COC(=O)C1=C(C)NC(=O)NC1c1c(O)ccc2ccccc12 (centres undefined) | 15.2 (≈ 48.7 µM)
Cc1ccc(Nc2cc(C)nc3c(C)cccc23)cc1 | 35 (≈ 133 µM)
Cc1onc(-c2ccccc2)c1C(=O)N(C)CCc1ccccn1 | > 48.2
COc1ccc(NC(=O)CCS(=O)(=O)c2ccc(Cl)cc2)cc1 | 18.4 (≈ 52 µM)
O=C(Nc1ccccc1)c1cccc2c(Br)cccc12 | < 0.7
Cc1ccc2c(C(=O)CN3CCN(C(=O)c4ccco4)CC3)c(C)[nH]c2c1 | 14.6 (≈ 40 µM)
CN(C)S(=O)(=O)c1cccc(C(=O)Nc2ccc(C(=O)Nc3cccc(S(N)(=O)=O)c3)cc2)c1 | 9 (≈ 17.9 µM)
COc1ccc(-c2noc(CNC(=O)c3ccoc3C)n2)cc1 | 37.8 (≈ 121 µM)
O=C(CSc1ccccc1)NCCc1ccccc1 | 39.4 (≈ 145 µM)
CCC(C(=O)Nc1ncc(C)s1)c1ccccc1 (centres undefined) | 2.9 (≈ 11.1 µM)

SMILES | solubility kinetic [µg/mL]
Cc1ccc(Nc2ncc3c(n2)CC(C)CC3=O)c(C)c1 (centres undefined) | > 42.2
O=C1NC2(CCCCC2)N(C(=O)c2ccccc2)C2=C1CCCC2 | 8.1 (≈ 25 µM)
O=C(CCl)Nc1nccs1 | > 26.5
O=C(N/N=C\c1cccnc1)c1ccc(Cl)cc1Cl | > 44.1
CN1CCN(C(=O)CCc2nc(-c3ccc(Cl)cc3)no2)CC1 | > 50.2
Cc1cc(NS(=O)(=O)c2cccc([N+](=O)[O-])c2)no1 | 32.5 (≈ 115 µM)
O=C1CN(S(=O)(=O)c2ccccc2C(F)(F)F)CCN1 | 40.3 (≈ 131 µM)
COc1ccc(NC(=O)c2ccc3ccccc3c2OC)cc1 | < 0.7
CC(=O)Nc1ccc(C(=O)N2CCc3cc4c(cc3C2C)OCCCO4)cc1 (centres undefined) | > 57.1
CN(C(=O)CCn1c(=S)oc2ccccc21)C1CCCCC1 | > 47.8
Cn1c(=O)c2c(ncn2CC(=O)Nc2nccs2)n(C)c1=O | 26.1 (≈ 81.5 µM)
COc1ccc(S(=O)(=O)NC2CC2)cc1Br | > 45.9
Cc1ccc(Oc2ccc(NS(=O)(=O)c3cccc(C(=O)O)c3)cc2)cc1 | 57.2 (≈ 149 µM)
CC(=O)Nc1cc(-c2nc3ccccc3o2)ccc1Cl | 1.6 (≈ 5.58 µM)
CSc1ncc(C(C)=O)c(C)n1 | > 27.3
O=C(CS(=O)(=O)c1ccccc1)Nc1nc2ccccc2s1 | > 49.9
O=C(Nc1ccccc1Br)c1cc[n+]([O-])cc1 | > 44
O=C(NC(=S)N1CCCCC1CO)c1cccs1 (centres undefined) | > 42.7
CCCOC(=O)Nc1sc2c(c1C(N)=O)CCCC2 | 1.3 (≈ 4.6 µM)
COc1ccc(-c2cc(C(F)(F)F)nc(-n3ccnc3)n2)cc1 | 0.6 (≈ 1.87 µM)

Further lines, results first:

solubility kinetic [µg/mL] | SMILES
3.4 (≈ 10.8 µM) | COC(=O)c1ccc(CSc2cc(C)c3ccccc3n2)o1
> 47.3 | CC(Sc1ccc(S(=O)(=O)N2CCCC2)cn1)C(N)=O (centres undefined)
> 50.3 | CCN(CC(=O)Nc1c(F)cccc1F)C(=O)c1ccc(=O)[nH]c1
> 59.2 | CCN(CC(=O)Nc1ccc2c(c1)OCCO2)S(=O)(=O)c1ccc(F)cc1
> 50 | Cc1ccccc1C(C)NS(=O)(=O)c1ccc2c(c1)OCCO2 (centres undefined)
> 29.1 | COc1ccc(NC(=O)/C=N/O)cc1
> 48.8 | CC(C)COc1cccc(C(=O)NC2(C)CCS(=O)(=O)C2)c1 (centres undefined)
> 59.8 | CCOC(=O)c1ccc(S(=O)(=O)NCCNCc2ccccc2)cc1.Cl
3.1 (≈ 8.83 µM) | O=C1CN(C(=O)COc2ccc(Cl)cc2Cl)c2ccccc2N1
12.1 (≈ 37.8 µM) | CC(=O)c1cccc(NC(=O)c2nc(-c3ccccc3)oc2C)c1
33.1 (≈ 108 µM) | COc1ccc(C(C)(C)C)cc1NC(=O)COC(=O)C(C)C
57.2 (≈ 123 µM) | Cc1ccc(C(=O)OCC(=O)NCCc2ccc(F)cc2)cc1S(=O)(=O)N1CCOCC1
4.3 (≈ 11.7 µM) | COc1ccc(OCC(O)CNC(=O)Nc2cccc3ccccc23)cc1 (centres undefined)
30.4 (≈ 118 µM) | CCN(CC)S(=O)(=O)c1ccc(C(=O)O)cc1
> 36 | CC(C)c1ccc(C(=O)Nc2cccnc2)cc1
> 43.1 | COC(=O)c1c(C)oc(C)c1S(=O)(=O)NCC1CC1
> 41.3 | CC(=O)c1ccccc1OC(=O)c1ccc([N+](=O)[O-])o1
> 72.1 | O=C(COC(=O)c1cc(S(=O)(=O)N2CCOCC2)ccc1F)NCc1ccc2c(c1)OCO2
> 44.8 | Nc1cc(C(=O)OCC(=O)N2CCOCC2)ccc1Cl
